Data published in patent publication US8119695B2, “Compounds and methods for treating breast cancer and other diseases” (City of Hope, priority 2003, dated 2012).
Read-outs that look alike come from different tables or passages of the source. One block for each compound: values may come before it.

How the values were obtained:
Format in all cases: cell-based
ERRα (GAL-ERRa) = experiment: MH100x4 luciferase reporter with GAL-ERRa; parameters: Reporter Activity: unit not given here
Excerpt: (§1) MH100x4 is a luciferase reporter with four copies of a GAL4 […] response element. GAL-L refers to the ligand-binding domain of the indicated receptor fused to the C-terminus of the GAL4 DNA binding domain.

ERRβ (GAL-L-ERRb) = target: T1, ERRβ (GAL-L-ERRb) (Homo sapiens, UniProt O95718); experiment: MH100x4 luciferase reporter with GAL-L-ERRb; parameters: Reporter Activity: unit not given here; conditions: for inhibition of the activity of ERRβ: result in words
T1 construct: expressed in transfected cells
T1 sequence (O95718 208-432 limits assumed): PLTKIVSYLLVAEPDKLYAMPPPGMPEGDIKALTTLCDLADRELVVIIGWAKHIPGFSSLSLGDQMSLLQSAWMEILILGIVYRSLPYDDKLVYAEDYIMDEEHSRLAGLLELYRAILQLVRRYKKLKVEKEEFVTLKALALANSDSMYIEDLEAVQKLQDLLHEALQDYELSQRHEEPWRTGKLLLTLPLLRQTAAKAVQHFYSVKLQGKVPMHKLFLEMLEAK
Excerpt: as §1

ERRγ (GAL-ERRg) = experiment: MH100x4 luciferase reporter with GAL-ERRg; parameters: Reporter Activity: unit not given here; conditions: for inhibition of the activity of ERRγ: result in words
Excerpt: as §1

MH100x4 = MH100x4 luciferase reporter without receptor
Excerpt: as §1

ERE-TK-luc = ERE-TK-luc reporter without receptor, E2 100 nM
[1] = Table 3, dose 2.5 (unit not given), None 1
[2] = Table 3, dose 2.5 (unit not given), None 8.18
[3] = Table 3, dose 2.5 (unit not given), None 2.38
[4] = Table 3, dose 2.5 (unit not given), None 2.2
[5] = Table 2, dose 5 (unit not given), None 0.49
[6] = Table 2, dose 5 (unit not given), None 1.00
[7] = Table 2, dose 5 (unit not given), None 8.54
[8] = Table 2, dose 5 (unit not given), None 1.44
[9] = Table 2, dose 5 (unit not given), None 1.25
[10] = Table 4, DY39 dose head 0 (1st of 2), None 1
[11] = Table 4, DY39 dose head 0 (2nd of 2), None 1

Structure (SMILES): CCC(=C(CC)c1ccc(Oc2cccc(C=O)c2)cc1)c1ccc(O)cc1 [DY19]
- Reporter Activity (MH100x4; [5]): 0.37
- Fold Activation (MH100x4; [6]): 0.76
- Fold Activation (ERRα (GAL-ERRa); [6]): 0.62
- Reporter Activity (ERRα (GAL-ERRa); [7]): 5.27
- Fold Activation (ERRβ (GAL-L-ERRb); [6]): 0.58
- Reporter Activity (ERRβ (GAL-L-ERRb); [8]): 0.84
- Fold Activation (ERRγ (GAL-ERRg); [6]): 0.82
- Reporter Activity (ERRγ (GAL-ERRg); [9]): 1.02

Structure (SMILES): CCC(=C(CC)c1ccc(O)c(C(C)(C)C)c1)c1ccc(O)cc1 [DY18]
- Reporter Activity (MH100x4; [5]): 0.26
- Fold Activation (MH100x4; [6]): 0.53
- Fold Activation (ERRα (GAL-ERRa); [6]): 0.40
- Reporter Activity (ERRα (GAL-ERRa); [7]): 3.39
- Fold Activation (ERRβ (GAL-L-ERRb); [6]): 0.42
- Reporter Activity (ERRβ (GAL-L-ERRb); [8]): 0.6
- Fold Activation (ERRγ (GAL-ERRg); [6]): 0.58
- Reporter Activity (ERRγ (GAL-ERRg); [9]): 0.73

Structure (SMILES): C[C@]12CC[C@@H]3c4ccc(O)cc4CC[C@H]3[C@@H]1CC[C@@H]2O [E2, estradiol, reference compound]
- Reporter Activity (ERE-TK-luc): 1.13
- Reporter Activity (ERE-TK-luc; Table 6, E2 100 nM alone (no dose head), None 1.44): 1.2

Structure (SMILES): CCCCCCCCCCCCOc1ccc(/C(CC)=C(\CC)c2ccc(O)cc2)cc1 [DY14]
- Fold Activation (ERRα (GAL-ERRa); [6]): 1.01
- Reporter Activity (ERRα (GAL-ERRa); [7]): 8.63
- Fold Activation (ERRβ (GAL-L-ERRb); [6]): 0.96
- Reporter Activity (ERRβ (GAL-L-ERRb); [8]): 1.38
- Fold Activation (ERRγ (GAL-ERRg); [6]): 1.10
- Reporter Activity (ERRγ (GAL-ERRg); [9]): 1.38

Structure (SMILES): CN(C)CCOc1ccc(/C(=C(/CCCl)c2ccccc2)c2ccc(O)cc2)cc1 [DY33]
- Reporter Activity (ERRγ (GAL-ERRg); [4]): 0.58

The next lines start with results.

- Fold Activation (ERRβ (GAL-L-ERRb); [1]): 0.08
- Reporter Activity (ERRβ (GAL-L-ERRb); [3]): 0.2
- inhibition of the activity of ERRβ (ERRβ (GAL-L-ERRb)): inhibit the activity
- inhibition of the activity of ERRγ (ERRγ (GAL-ERRg)): inhibit the activity
Structure (SMILES): CC/C(=C(/c1ccc(OCCN(C)C)cc1)c1ccc(OC(C)=O)cc1)c1ccccc1 [DY28, (E,Z)-4-{1-[4-(2-dimethylamino-ethoxy)-phenyl]-2-phenyl-but-1-enyl}-phenyl acetate]
- Fold Activation (ERRα (GAL-ERRa); [1]): 0.99
- Reporter Activity (ERRα (GAL-ERRa); [2]): 8.08
- Fold Activation (ERRγ (GAL-ERRg); [1]): 0.11
- Reporter Activity (ERRγ (GAL-ERRg); [4]): 0.25

- Fold Activation (ERRβ (GAL-L-ERRb); [1]): 1.01
- Reporter Activity (ERRβ (GAL-L-ERRb); [3]): 2.4
Structure (SMILES): CCC(=C(c1ccc(OC2CCCCO2)cc1)c1ccc(OC2CCCCO2)cc1)c1ccccc1 (centres unmarked) [DY26]
- Fold Activation (ERRα (GAL-ERRa); [1]): 1.15
- Reporter Activity (ERRα (GAL-ERRa); [2]): 9.38
- Fold Activation (ERRγ (GAL-ERRg); [1]): 0.99
- Reporter Activity (ERRγ (GAL-ERRg); [4]): 2.17

- Fold Activation (MH100x4; [10]): 1.08
- Reporter Activity (MH100x4; Table 4, DY39 dose head 0 (1st of 2), None 1.14): 1.23
- Fold Activation (MH100x4; [11]): 0.89
- Reporter Activity (MH100x4; Table 4, DY39 dose head 0 (2nd of 2), None 1.14): 1.02
- Fold Activation (MH100x4; Table 4, dose 0.1 (unit not given), None 1/1.03): 0.96
- Reporter Activity (MH100x4; Table 4, dose 0.1 (unit not given), None 1.14/1.17): 1.1
- Fold Activation (MH100x4; Table 4, dose 0.3 (unit not given), None 1/1.03): 0.96
- Reporter Activity (MH100x4; Table 4, dose 0.3 (unit not given), None 1.14/1.17): 1.09
- Fold Activation (MH100x4; Table 4, dose 1 (unit not given), None 1/1.03): 0.8
- Reporter Activity (MH100x4; Table 4, dose 1 (unit not given), None 1.14/1.17): 0.9
- Fold Activation (MH100x4; Table 4, dose 3 (unit not given), None 1/1.03): 0.73
- Reporter Activity (MH100x4; Table 4, dose 3 (unit not given), None 1.14/1.17): 0.83
- Fold Activation (ERRα (GAL-ERRa); [10]): 1.09
- Reporter Activity (ERRα (GAL-ERRa); Table 4, DY39 dose head 0 (1st of 2), None 27.7): 30.2
- Fold Activation (ERRα (GAL-ERRa); [11]): 0.95
- Reporter Activity (ERRα (GAL-ERRa); Table 4, DY39 dose head 0 (2nd of 2), None 27.7): 26.4
- Fold Activation (ERRα (GAL-ERRa); Table 4, dose 0.1 (unit not given), None 1/1.23): 1.08
- Reporter Activity (ERRα (GAL-ERRa); Table 4, dose 0.1 (unit not given), None 27.7/34.05): 30
- Fold Activation (ERRα (GAL-ERRa); Table 4, dose 0.3 (unit not given), None 1/1.23): 1.09
- Reporter Activity (ERRα (GAL-ERRa); Table 4, dose 0.3 (unit not given), None 27.7/34.05): 30.1
- Fold Activation (ERRα (GAL-ERRa); Table 4, dose 1 (unit not given), None 1/1.23): 1.2
- Reporter Activity (ERRα (GAL-ERRa); Table 4, dose 1 (unit not given), None 27.7/34.05): 33
- Fold Activation (ERRα (GAL-ERRa); Table 4, dose 3 (unit not given), None 1/1.23): 1.31
- Reporter Activity (ERRα (GAL-ERRa); Table 4, dose 3 (unit not given), None 27.7/34.05): 36.2
- Fold Activation (ERRβ (GAL-L-ERRb); [10]): 1.25
- Reporter Activity (ERRβ (GAL-L-ERRb); Table 4, DY39 dose head 0 (1st of 2), None 7.21): 9.02
- Fold Activation (ERRβ (GAL-L-ERRb); [11]): 1.04
- Reporter Activity (ERRβ (GAL-L-ERRb); Table 4, DY39 dose head 0 (2nd of 2), None 7.21): 7.53
- Fold Activation (ERRβ (GAL-L-ERRb); Table 4, dose 0.1 (unit not given), None 1/1.2): 1.2
- Reporter Activity (ERRβ (GAL-L-ERRb); Table 4, dose 0.1 (unit not given), None 7.21/8.67): 8.63
- Fold Activation (ERRβ (GAL-L-ERRb); Table 4, dose 0.3 (unit not given), None 1/1.2): 0.95
- Reporter Activity (ERRβ (GAL-L-ERRb); Table 4, dose 0.3 (unit not given), None 7.21/8.67): 6.84
- Fold Activation (ERRβ (GAL-L-ERRb); Table 4, dose 1 (unit not given), None 1/1.2): 0.4
- Reporter Activity (ERRβ (GAL-L-ERRb); Table 4, dose 1 (unit not given), None 7.21/8.67): 2.9
- Fold Activation (ERRβ (GAL-L-ERRb); Table 4, dose 3 (unit not given), None 1/1.2): 0.28
- Reporter Activity (ERRβ (GAL-L-ERRb); Table 4, dose 3 (unit not given), None 7.21/8.67): 1.99
- inhibition of the activity of ERRβ (ERRβ (GAL-L-ERRb)): inhibit the activity
- Fold Activation (ERRγ (GAL-ERRg); [10]): 0.94
- Reporter Activity (ERRγ (GAL-ERRg); Table 4, DY39 dose head 0 (1st of 2), None 5.49): 5.14
- Fold Activation (ERRγ (GAL-ERRg); [11]): 0.96
- Reporter Activity (ERRγ (GAL-ERRg); Table 4, DY39 dose head 0 (2nd of 2), None 5.49): 5.25
- Fold Activation (ERRγ (GAL-ERRg); Table 4, dose 0.1 (unit not given), None 1/1.01): 0.94
- Reporter Activity (ERRγ (GAL-ERRg); Table 4, dose 0.1 (unit not given), None 5.49/5.56): 5.18
- Fold Activation (ERRγ (GAL-ERRg); Table 4, dose 0.3 (unit not given), None 1/1.01): 0.91
- Reporter Activity (ERRγ (GAL-ERRg); Table 4, dose 0.3 (unit not given), None 5.49/5.56): 4.97
- Fold Activation (ERRγ (GAL-ERRg); Table 4, dose 1 (unit not given), None 1/1.01): 0.5
- Reporter Activity (ERRγ (GAL-ERRg); Table 4, dose 1 (unit not given), None 5.49/5.56): 2.7
- Fold Activation (ERRγ (GAL-ERRg); Table 4, dose 3 (unit not given), None 1/1.01): 0.3
- Reporter Activity (ERRγ (GAL-ERRg); Table 4, dose 3 (unit not given), None 5.49/5.56): 1.67
- inhibition of the activity of ERRγ (ERRγ (GAL-ERRg)): inhibit the activity
Structure (SMILES): CC(C)CC(=C(c1ccc(O)cc1)c1ccc(OCCN(C)C)cc1)c1ccccc1 (mixture of isomers) [DY39]
